In BigSolDB 2.1:

COC(=O)[C@H]1[C@H]2C[C@@H]3c4[nH]c5cc(OC)ccc5c4CCN3C[C@H]2C[C@@H](OC(=O)c2cc(OC)c(OC)c(OC)c2)[C@@H]1OC
Conditions | solubility (mole fraction)
in PEG-400, 298.15 K | 0.00144
in PEG-400, 308.15 K | 0.00206
in PEG-400, 318.15 K | 0.00281
in PEG-400, 328.15 K | 0.00373
in PEG-400, 338.15 K | 0.0047

solubility (mole fraction)
Conditions | in ethanol | in ethyl acetate | in ethylene glycol | in isopropanol | in propylene glycol | in transcutol | in water
298.15 K | 9.16e-06 | 0.000521 | 5.3e-05 | 2.43e-05 | 2.88e-05 | 0.000769 | 9.71e-07
308.15 K | 1.25e-05 | 0.000608 | 7.04e-05 | 3.16e-05 | 3.38e-05 | 0.000906 | 1.25e-06
318.15 K | 1.59e-05 | 0.000723 | 9.28e-05 | 4.02e-05 | 4e-05 | 0.0011 | 1.57e-06
328.15 K | 2.07e-05 | 0.000868 | 0.000114 | 4.95e-05 | 4.63e-05 | 0.00137 | 1.9e-06
338.15 K | 2.53e-05 | 0.00104 | 0.000143 | 6.07e-05 | 5.5e-05 | 0.00161 | 2.25e-06
